Source: ChEMBL document CHEMBL5214910, “Rational Design of Dipicolylamine-Containing Carbazole Amphiphiles Combined with Zn2+ as Potent Broad-Spectrum Antibacterial Agents with a Membrane-Disruptive Mechanism” (J Med Chem, 2021)

Assays:
[1] = test system: Staphylococcus aureus; experiment: Antibacterial activity against Methicillin-resistant Staphylococcus aureus NCTC10442 assessed as inhibition of bacterial growth by measuring salt resistance incubated for 24 hrs in the presence of 12.5 ug/ml Zn2+ and 3220 ug/ml Na+ by Muller hinton broth based dilution assay; assay type: functional
[2] = test system: Staphylococcus aureus; experiment: Antibacterial activity against Staphylococcus aureus ATCC 29213 in cyclophosphamide immunosuppressed C57BL/6 mouse model of bacterial keratitis assessed as log reduction in viable bacterial count in infected cornea at 0.5 % pre-infected with bacteria for 24 hrs followed by topical administration of compound four times a day for 3 days in the presence of 12.5 ug/ml of Zn2+; assay type: functional; conditions: route top, time 3 day

CC(C)=CCn1c2ccccc2c2c(OCC(O)CN(Cc3ccccn3)Cc3ccccn3)cccc21 (configuration not stated)
MIC [1]: 1.56 µg/mL | log(activity) [2]: 6.5
